We go through one compound from patent US20230365626A1, “Alloferon Peptide and Method Using the Same” (Industry Academy Cooperation Foundation of Sejong University, priority 2020, published 2023).

Test [1] concerns TFEB, cathepsin B, and cathepsin D. The test is described as follows: Western blot of TFEB, cathepsin B and cathepsin D expression. Format: cell-based, ICR mouse. The settings on record: 1 μM TPEN with 20 μM alloferon D-form peptide, 4 hours (FIG. 5B). The procedure:
The cerebral cortex nerve cells of the mice were obtained by extracting the cerebrum from ICR mouse embryos of 13-14 day gestation. 6-7 hemispheres per culture dish were inoculated on 24-well culture dishes or 6-well culture dishes (SPL Life Science, South Korea) coated with 0.01% poly-D-lysine (Sigma, USA) prepared in advance. A cell culture medium, in which Dulbecco's Modified Eagle's Medium (DMEM, Gibco, USA) to which 20 mM glucose and 38 mM sodium bicarbonate were added and which was further supplemented with 5% fetal bovine serum (Hyclone, USA), 5% horse serum (Gibco, USA), and 1% glutamine, was used, and the cell culture medium was incubated in a cell incubator, in which the conditions of 37° C. and 5% CO2 were maintained, and was used in this experiment 10 to 12 days in vitro (DIV) after inoculation.
The present inventors had observed that the effect of enhancing the autophagic flux by the alloferon D-form peptides is achieved through the activity of cathepsin B and the decrease in the lysosomal pH, and thus, this time, the present inventors investigated through western blot analysis in order to find out whether there is a change in the amount of lysosomal protease expression. […]

For test [2], the system named is cerebral cortical nerve cells. The test is described as follows: Zinpyr-1 staining (zinc in the lysosome). Format: cell-based, ICR mouse. The conditions noted are these: in combination with 1 μM TPEN, 4 hours. How it is done:
Subsequently, the present inventors measured the zinc concentration in the cells to determine what effect the treatment with the alloferon D-form peptides has on the zinc concentration in the lysosome. To this end, specifically, the cerebral cortical nerve cells were washed once with MEM, and then the MEM was replaced with MEM containing 5 μM zinpyr-1, an intracellular zinc marker (Cayman Chemical, USA, Ex=492 nm, Em=527 nm) and 75 nM lysotracker, and left at 37° C. for 30 minutes. Thereafter, it was washed with fresh MEM and treated with individual reagents (alloferon D-form peptides) according to the experimental conditions. Then, the cells were fixed with 4% PFA (pH 7.4) for 15 minutes, washed twice with PBS (Biowest, France), and photographed with a fluorescent microscope.

On to `c1ccc(CN(CCN(Cc2ccccn2)Cc2ccccn2)Cc2ccccn2)nc1` [TPEN, N,N,N′,N′-tetrakis(2-pyridylmethyl)ethylene-diamine], for which the “amounts of TFEB, cathepsin B, and cathepsin D” value in test [1] was “reduced”. Moreover, in test [2], the “Zinpyr-1 fluorescence increased by the alloferon D-form peptides” value is “reduced”.
